pEC50: −log10 of the molar value. Like-named read-outs stand apart in the source and are kept apart here.
Tests used:
hFSHR = biological target: T1, hFSHR (Homo sapiens, UniProt P23945); assay: cAMP (HTRF) in CHO cells transfected with hFSHR; type: cell-based; conditions: for EC50: compounds in presence of EC20 ligand (Figure 1 legend); for EC50 / % Response, CHO-hFSHR: mean ± SEM; for % Response, CHO-hFSHR: maximal cAMP vs maximal response of protein ligand FSH
T1 construct: expressed in transfected cells
T1 sequence (P23945 18-695): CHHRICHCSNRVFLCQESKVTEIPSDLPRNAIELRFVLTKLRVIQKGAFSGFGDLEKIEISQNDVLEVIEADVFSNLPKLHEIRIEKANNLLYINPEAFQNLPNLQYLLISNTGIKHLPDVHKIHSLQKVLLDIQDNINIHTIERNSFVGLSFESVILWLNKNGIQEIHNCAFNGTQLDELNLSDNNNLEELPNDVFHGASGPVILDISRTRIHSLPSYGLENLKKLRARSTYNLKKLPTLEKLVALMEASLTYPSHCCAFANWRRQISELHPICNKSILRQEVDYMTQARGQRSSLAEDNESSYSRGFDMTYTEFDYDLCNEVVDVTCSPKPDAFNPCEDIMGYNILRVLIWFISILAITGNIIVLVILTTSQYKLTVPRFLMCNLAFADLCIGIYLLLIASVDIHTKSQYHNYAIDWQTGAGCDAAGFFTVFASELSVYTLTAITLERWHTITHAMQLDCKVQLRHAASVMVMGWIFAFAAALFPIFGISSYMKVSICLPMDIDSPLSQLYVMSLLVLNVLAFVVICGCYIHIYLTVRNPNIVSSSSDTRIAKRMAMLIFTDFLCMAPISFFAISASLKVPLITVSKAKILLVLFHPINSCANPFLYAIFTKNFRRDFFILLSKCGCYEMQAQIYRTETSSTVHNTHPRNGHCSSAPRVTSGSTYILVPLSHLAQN
Description: Chinese hamster ovary (CHO) cells transfected with hFSHR, hLHR or hTSHR were grown as described previously ([Kelton et al., 1992]; [Persani et al., 1993]; [Yu et al., 2014]). In brief, CHO-hFSHR and CHO-hTSHR were maintained in DMEM/F12 + 10% FBS in T150 culture flasks. The cells were cultured until they reached 70–80% confluence (three days) and were then used for assays or passaged. CHO-hLHR ([van de Lagemaat et al., 2009]; [Sriraman et al., 2014]) was cultured in MEM alpha (++) +10% FBS and G418, and passaged every three days. CHO-hFSHR or −hLHR or −hTSR cells (2,500/well) were plated in 5 µL of phenol red free DMEM/F12 + 1% FBS in 384 well solid white low volume plates (Greiner 784075) by Multidrop. […] The plates were incubated at 37°C for 1 h. After the incubation period, cAMP was measured by HTRF® (homogeneous time-resolved fluorescence) assay (CisBio, Bedford, MA). In brief, conditioned media were incubated with cryptate-labeled cAMP antibody and d2-labeled cAMP in lysis buffer for 1 h. Free cAMP produced by cells competes with cAMP-d2 for binding to the anti-cAMP cryptate. An increase in cellular cAMP leads to a decrease in fluorescence resonance energy transfer, which is detectable as a decrease in the emission at 665 nm, measured by Envision fluorescence reader (PerkinElmer, Waltham, MA). The readout was calculated fluorescence ratio (665/620 nm). Values given in percent (%) indicate the percent response at a certain concentration of agonist relative to the maximum response of the protein ligand standard.

rat granulosa cells = assay: Rat granulosa cell assay measuring secreted estradiol; type: cell-based; conditions: for % Response, estradiol, +EC20 FSH / EC50 / % Response, estradiol, No FSH: 24 h, mean ± SEM; for fold improvement of EC50 for estradiol production by low concentration of rec-hFSH: rec-hFSH 0.2 pM
Description: All animals were maintained and handled under IACUC approved procedures at the respective institutions providing contracted service for TocopheRx, following procedures previously approved by local (MA, United States) IACUC reviews ([Sriraman et al., 2014]; [Yu et al., 2014]). Ovarian follicular granulosa cells were isolated from rats implanted with DES pellets (1 mg/day; 7-days release) at ChemPartner (Shanghai, China). The pellets were implanted subcutaneously on 22 day old rats with trochar, employing aseptic techniques after isoflurane anesthesia. Animals were euthanized on post-op day 3, ovaries were excised, cleaned, and granulosa cells were isolated by repeated disruption of the follicle as described previously. Granulosa cells isolated from four to five rats were used to culture one 96-well plate and an equal number of cells was plated in each well. The cells were cultured overnight at 37°C in media containing 5% FBS.
After overnight culture, the media was replaced with serum free media containing 0.1% BSA and 100 nM androstenedione. […] After 24 h of treatment, supernatant was collected and estradiol concentration was determined by ELISA (DRG, Mountainside, NJ, United States). The optical densities of the estradiol ELISA were measured by Spectramax (Sunnyvale, CA, United States). The values were analyzed in Microsoft Excel and Graphpad Prism (San Diego, CA, United States).

human granulosa cells = assay: Estradiol production from pooled human granulosa-lutein cells (Boston IVF); type: cell-based; conditions: for pEC50: pooled granulosa-lutein cells from two patients (Figure 4A), read-out: EC50, 17β-estradiol production; for maximal 17β-estradiol response: three patients (Figure 4B)
Description: Human granulosa cells were prepared from the spent follicular fluid of women undergoing IVF treatment at Boston IVF Center (Waltham, MA, United States) and at Family Fertility Center (Baylor College of Medicine, Houston, TX, United States) following methods previously established ([Breckwoldt et al., 1996]; [Amsterdam et al., 2003]). Institutional review board approval and informed consent from the patients were obtained before collecting the follicular fluid samples. In brief, red blood cells (RBCs) in the follicular aspirate were lyzed using RBC lysis buffer (Quality Biological Inc., Gaithersburg, MD, United States), and washed extensively with PBS and DMEM/F12 containing 5% FBS, fungizone, and the antibiotics penicillin (100 IU/ml) and streptomycin (100 μg/ml). Subsequently, cells from the aspirate were plated in T75 flasks, cultured for 7 days with fresh media being replaced every other day. At the end of the culture period, cells were released from the flask by trypsin and transferred to 96-well plates (5,000 cells/well, Greiner Bio-One). Following 48 h of culture, media in culture wells was replaced with serum free media containing 0.1% BSA and 10^−7 M androstenedione. Following 24 h of serum starvation, cells were stimulated with fresh media (0.1% BSA, 10^−7 M androstenedione) with FSH or compound for 48 h. Supernatant was collected and stored at −80C for determination of estradiol by ELISA.

CYP3A4 = CYP3A4 (Homo sapiens, UniProt P08684); assay: CYP time dependent inhibition; type: in vitro ADME
Chain of CYP3A4 (P08684 whole entry): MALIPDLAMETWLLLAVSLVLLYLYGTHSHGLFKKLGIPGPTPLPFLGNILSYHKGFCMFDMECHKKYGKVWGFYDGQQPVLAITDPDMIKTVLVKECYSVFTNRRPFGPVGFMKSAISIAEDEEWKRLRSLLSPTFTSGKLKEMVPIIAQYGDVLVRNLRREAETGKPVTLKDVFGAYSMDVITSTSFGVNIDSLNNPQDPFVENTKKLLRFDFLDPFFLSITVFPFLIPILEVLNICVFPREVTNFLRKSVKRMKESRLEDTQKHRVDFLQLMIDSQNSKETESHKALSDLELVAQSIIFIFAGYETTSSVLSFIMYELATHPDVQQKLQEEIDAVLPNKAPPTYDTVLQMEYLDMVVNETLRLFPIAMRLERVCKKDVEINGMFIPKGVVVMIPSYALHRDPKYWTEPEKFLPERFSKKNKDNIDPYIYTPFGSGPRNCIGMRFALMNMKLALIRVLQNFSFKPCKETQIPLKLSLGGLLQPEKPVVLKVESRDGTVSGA

Mouse pharmacokinetics = type: in vivo; conditions: 5 mg/kg; for Mouse PK F%: oral bioavailability
[1] = microsomes
[2] = microsomes; remark: listed apart in the source
[3] = mouse, microsomes
[4] = +EC20 FSH, read-out: EC50 (M), estradiol, +EC20 FSH
[5] = No FSH, read-out: EC50 (M), estradiol, No FSH

Q: Which results are given for `COc1cc2c(cc1-c1cnn(CCO)c1)-c1c(c(C(=O)N(C)C(C)(C)C)nn1-c1cc(Cl)cc(Cl)c1)CO2` [TOP5300]?
A: EC50 (hFSHR): 9.72 nM; % Response, CHO-hFSHR (hFSHR): 98.4 ± 0.31%; % Response, estradiol, +EC20 FSH (rat granulosa cells; +EC20 FSH): 125 ± 12%; EC50 (rat granulosa cells; [4]): 1.75e-07 M; % Response, estradiol, No FSH (rat granulosa cells; No FSH): 65 ± 6%; EC50 (rat granulosa cells; [5]): 8.68e-07 M; fold improvement of EC50 for estradiol production by low concentration of rec-hFSH (rat granulosa cells): 2 fold; pEC50 (human granulosa cells): 6.32; maximal 17β-estradiol response (human granulosa cells; second culture): 200 ng/mL; CYP TDI (3A4) (CYP3A4): Negative; Mouse PK AUC (Mouse pharmacokinetics): 5,533 ng*h/ml; Mouse PK Cmax (Mouse pharmacokinetics): 1,133 ng/ml; Mouse PK T1/2 (Mouse pharmacokinetics): 2.5 h; Mouse PK F% (Mouse pharmacokinetics): 22%; Clint, rat [1]: 11 µl/min/mg protein; Clint, human [2]: 37 µl/min/mg protein; Clint, mice [3]: 19 µl/min/mg protein

Q: Which “fold more potent than TOP5300 in hFSHR-AA activity” value (hFSHR; CHO-hFSHR) does the source give for `COc1cc(C(N)=O)cc(-c2cc3c(cc2OC)OCc2c(C(=O)N(C)C(C)(C)C)nn(-c4cc(Cl)cc(Cl)c4)c2-3)n1` [TOP5668] here?
A: The value was 3-4 fold.

Q: And the EC50 (hFSHR)?
A: The EC50 was 2.2 nM.

Q: What about the “% Response, CHO-hFSHR” value (hFSHR) of the same compound?
A: Its value is 100.75 ± 0.51%.

Q: What about the “% Response, estradiol, +EC20 FSH” value (rat granulosa cells; +EC20 FSH) of the same compound?
A: The value was 117 ± 8%.

Q: What about the EC50 (rat granulosa cells; [4]) of the same compound?
A: Its EC50 is 7.33e-08 M.

Q: What about the “% Response, estradiol, No FSH” value (rat granulosa cells; No FSH) of the same compound?
A: The value was 93%.

Q: What about the EC50 (rat granulosa cells; [5]) of the same compound?
A: Its EC50 is 1.82e-07 M.

Q: And the “fold more potent than TOP5300, rat granulosa cells” value (rat granulosa cells; estradiol production)?
A: The value was 5 fold.

Q: And the “fold improvement of EC50 for estradiol production by low concentration of rec-hFSH” value (rat granulosa cells)?
A: The value was 2 fold.

Q: What about the “fold more potent than TOP5300, 17β-estradiol production” value (human granulosa cells; pooled cells from two patients (Figure 4A)) of the same compound?
A: Its value is 30 fold.

Q: What about the pEC50 (human granulosa cells) of the same compound?
A: The pEC50 was 7.82.

Q: And the “fold greater maximal estradiol response than rec-hFSH” value (human granulosa cells; pooled human granulosa cells, second culture (Figure 4B))?
A: The value was “approximately 7 fold”.

Q: What about the “potency shift to the left of TOP5300” value (human granulosa cells; second culture, pooled cells from three patients (Figure 4B)) of the same compound?
A: Its value is roughly 100 fold.

Q: And the “maximal 17β-estradiol response” value (human granulosa cells; second culture)?
A: The value was 200 ng/mL.

Q: And the “CYP TDI (3A4)” value (CYP3A4)?
A: The value was “Negative”.

Q: And the “Mouse PK AUC” value (Mouse pharmacokinetics)?
A: The value was 2,494 ng*h/ml.

Q: And the “Mouse PK Cmax” value (Mouse pharmacokinetics)?
A: The value was 312 ng/mL.

Q: And the “Mouse PK T1/2” value (Mouse pharmacokinetics)?
A: Its value is 3.57 h.

Q: And the “Mouse PK F%” value (Mouse pharmacokinetics)?
A: Its value is 26%.

Q: And the “Clint, rat” value [1]?
A: Its value is 7 µl/min/mg protein.

Q: What about the “Clint, human” value [2] of the same compound?
A: Its value is 20 µl/min/mg protein.

Q: And the “Clint, mice” value [3]?
A: Its value is 10 µl/min/mg protein.

— publication PMC7845544 (Frontiers in Pharmacology, 2021)
